Results taken from patent US4604380A, “C-23-substituted mycaminosyltylonolide compounds, pharmaceutical compositions and methods of use” (Eli Lilly and Company, priority 1985, dated 1986).
Values after ≈ are worked out from the molar mass of the structure shown. Values joined by “and” are separate entries in the source; they are usually repeats but may differ in a detail not shown here. Equal entries are not always repeated. Where two headings read alike, the source gives them in different places.

Experiments:
Staphylococcus aureus = assay: ED50 vs. Staphylococcus aureus experimental infection in mice (Table V); format: in vivo; settings: sc, subcutaneous, two doses, dose protecting 50% of animals, read-out: ED50 Subcutaneous
Procedure: (§1) Certain formula 1a compounds have also shown in vivo antimicrobial activity against experimental bacterial infections. When two doses of test compound were administered to mice in experimental infections, the activity observed was measured as an ED50 value [effective dose in mg/kg to protect 50% of the test animals: see Warren Wick, et al., J. Bacteriol. 81, 233-235 (1961)].

Pasteurella multocida = assay: Activity in Pasteurella multocida-infected one-day-old chicks (Table VIII); format: in vivo; settings: subcutaneous 30 mg/kg × 2, 1 and 4 hours post-challenge, all non-medicated chicks died within 24 hours
Procedure: Table VIII summarizes the results of tests in which illustrative compounds were evaluated against a Pasteurella infection in one-day-old chicks. The compounds were administered parenterally after challenge of the chicks with Pasteurella multocida (0.1 mL of a 10^-4 dilution of a twenty-hour tryptose broth culture of an avian P. multocida given subcutaneously). In these tests, all non-medicated infected chicks died within 24 hours of Pasteurella challenge. In the tests summarized in Table VIII, the compounds were administered by subcutaneous injection at a dosage of 30 mg/kg, 1 and 4 hours post-challenge of the chicks with P. multocida.

[1] = test system: Streptococcus pneumoniae Park I; assay: microbe, parasite or virus in culture; format: cell-based; settings: Streptococcus pneumoniae
Procedure: (§2) The MIC's s in Table III were determined by standard agar-dilution assays. The MIC's in Table IV were obtained using a conventional broth-dilution microtiter test.

[2] = test system: Staphylococcus aureus X1.1; assay: MIC, standard agar-dilution assay (Table III); format: cell-based
Procedure: as §2

[3] = test system: Staphylococcus aureus X400; assay: MIC, standard agar-dilution assay (Table III); format: cell-based; settings: Staphylococcus aureus, X400
Procedure: as §2

[4] = test system: Staphylococcus epidermidis 222; assay: MIC, standard agar-dilution assay (Table III); format: cell-based; settings: agar dilution; Staphylococcus epidermidis 222; read-out: MIC
Procedure: as §2

[5] = test system: Haemophilus influenzae C.L.; assay: MIC, standard agar-dilution assay (Table III); format: cell-based
Procedure: as §2

[6] = test system: Staphylococcus aureus V41; assay: MIC, standard agar-dilution assay (Table III); format: cell-based; settings: Staphylococcus aureus V41, penicillin-resistant strain
Procedure: as §2

[7] = test system: Streptococcus Group D X66; assay: MIC, standard agar-dilution assay (Table III); format: cell-based
Procedure: as §2

[8] = test system: Streptococcus pyogenes C203; assay: MIC, standard agar-dilution assay (Table III); format: cell-based; settings: agar dilution; Streptococcus pyogenes C203; read-out: MIC
Procedure: as §2

[9] = test system: Staphylococcus epidermidis EPI1; assay: MIC, standard agar-dilution assay (Table III); format: cell-based; settings: Staphylococcus epidermidis, EPI1
Procedure: as §2

[10] = test system: Staphylococcus aureus S13E; assay: MIC, standard agar-dilution assay (Table III); format: cell-based
Procedure: as §2

[11] = test system: Streptococcus Group D 2041; assay: MIC, standard agar-dilution assay (Table III); format: cell-based; settings: GROUPD2041
Procedure: as §2

[12] = test system: Haemophilus influenzae 76; assay: MIC, standard agar-dilution assay (Table III); format: cell-based; settings: agar dilution; Haemophilus influenzae 76, ampicillin-resistant strain; read-out: MIC
Procedure: as §2

Streptococcus pyogenes = assay: ED50 vs Streptococcus pyogenes experimental infection in mice (Table VI); format: in vivo; settings: two doses, several values = results from more than one test; for ED50: po, read-out: ED50 Oral
Procedure: as §1

[13] = test system: Streptococcous pneumoniae; assay: ED50 vs. Streptococcous pneumoniae experimental infection in mice (Table VII); format: in vivo; settings: Mus musculus, sc, subcutaneous, two doses, read-out: ED50 Subcutaneous
Procedure: as §1

[14] = test system: Pasteurella multocida 60A; assay: MIC, conventional broth-dilution microtiter test (Table IV); format: cell-based
Procedure: as §2

[15] = test system: Pasteurella hemolytica 23C; assay: as above; format: cell-based
Procedure: as §2

[16] = test system: Bordetella bronchisepticum 95B; assay: as above; format: cell-based
Procedure: as §2

[17] = test system: Pasteurella multocida 17E; assay: as above; format: cell-based
Procedure: as §2

[18] = test system: Mycoplasma gallisepticum 36H; assay: as above; format: cell-based; settings: Mycoplasmoides gallisepticum; broth-dilution microtiter; Mycoplasma gallisepticum 36H; read-out: MIC
Procedure: as §2

[19] = test system: Mycoplasma gallisepticum 15E; assay: as above; format: cell-based; settings: Mycoplasmoides gallisepticum; broth-dilution microtiter; Mycoplasma gallisepticum 15E; read-out: MIC
Procedure: as §2

Mycoplasma synoviae 40A = assay: as above; format: cell-based; settings: Mycoplasmopsis synoviae
Procedure: as §2

Streptococcus sp. 19F = assay: as above; format: cell-based
Procedure: as §2

[20] = test system: Pasteurella multocida 68C; assay: as above; format: cell-based
Procedure: as §2

[21] = test system: Pasteurella multocida 22A; assay: as above; format: cell-based
Procedure: as §2

[22] = test system: Mycoplasma hyopneumoniae S5972; assay: as above; format: cell-based; settings: Mesomycoplasma hyopneumoniae
Procedure: as §2

[23] = test system: Mycoplasma gallisepticum 29C; assay: as above; format: cell-based; settings: Mycoplasmoides gallisepticum, 29C
Procedure: as §2

[24] = test system: Pasteurella multocida 40G; assay: as above; format: cell-based
Procedure: as §2

[25] = test system: Pasteurella hemolytica 22C; assay: as above; format: cell-based; settings: Pasteurella, 22C
Procedure: as §2

[26] = test system: Pasteurella hemolytica 41D; assay: as above; format: cell-based
Procedure: as §2

[27] = test system: Staphylococcus aureus 19C; assay: as above; format: cell-based
Procedure: as §2

Mycoplasma hyorhinis 29E = assay: as above; format: cell-based; settings: broth-dilution microtiter; Mycoplasma hyorhinis 29E; read-out: MIC
Procedure: as §2

In the case of `CCC1OC(=O)CC(O)C(C)C(OC2OC(C)C(O)C(N(C)C)C2O)C(CC=O)CC(C)C(=O)C=CC(C)=CC1CN1CCCC12CCCCC2` (stereo not drawn) [Compound 31, 23-deoxy-23-(1-azaspiro[4.5]decan-1-yl)-OMT], the ED50 (Staphylococcus aureus) is reported as 2.15 mg/kg, the “Number of Deaths/Number Treated” value (Pasteurella multocida) is reported as 0/10 and 3/10 and the MIC [1] is reported as 0.03 µg/mL (≈ 0.0417 µM). The MIC [2] was 0.5 µg/mL (≈ 0.695 µM), the MIC [3] was 0.5 µg/mL (≈ 0.695 µM) and the MIC [4] was 0.25 µg/mL (≈ 0.348 µM). It also gave an MIC ([5]; agar dilution, Haemophilus influenzae C.L., ampicillin-sensitive strain, read-out: MIC) of 2 µg/mL (≈ 2.78 µM), an MIC [6] of 0.5 µg/mL (≈ 0.695 µM) and an MIC ([7]; agar dilution, Streptococcus Group D X66, read-out: MIC) of 0.25 µg/mL (≈ 0.348 µM). For the same compound, the MIC [8] was 0.125 µg/mL (≈ 0.174 µM), the MIC [9] was 0.5 µg/mL (≈ 0.695 µM) and the MIC [10] was 0.5 µg/mL (≈ 0.695 µM). It also gave an MIC ([11]; agar dilution, Streptococcus Group D 2041, read-out: MIC) of 0.25 µg/mL (≈ 0.348 µM), an MIC [12] of 2 µg/mL (≈ 2.78 µM) and an ED50 (Streptococcus pyogenes) of 59.5 mg/kg. For the same compound, the ED50 [13] was 9.22 mg/kg, the MIC ([14]; broth-dilution microtiter, Pasteurella multocida 60A, avian isolate, read-out: MIC) was 0.39 µg/mL (≈ 0.542 µM) and the MIC ([15]; broth-dilution microtiter, Pasteurella hemolytica 23C, read-out: MIC) was 0.39 µg/mL (≈ 0.542 µM). It also gave an MIC [16] of 6.25 µg/mL (≈ 8.69 µM), an MIC ([17]; broth-dilution microtiter, Pasteurella multocida 17E, bovine isolate, read-out: MIC) of 0.39 µg/mL (≈ 0.542 µM) and an MIC [18] of 50 µg/mL (≈ 69.5 µM). It also gave an MIC [19] of 50 µg/mL (≈ 69.5 µM), an MIC (Mycoplasma synoviae 40A; broth-dilution microtiter, Mycoplasma synoviae 40A, read-out: MIC) of 0.195 µg/mL (≈ 0.271 µM) and an MIC (Streptococcus sp. 19F) of under 0.048 µg/mL. The MIC ([20]; broth-dilution microtiter, Pasteurella multocida 68C, read-out: MIC) was 0.39 µg/mL (≈ 0.542 µM), the MIC ([21]; broth-dilution microtiter, Pasteurella multocida 22A, read-out: MIC) was 0.39 µg/mL (≈ 0.542 µM) and the MIC ([22]; S5972) was 0.097 µg/mL (≈ 0.135 µM). It also gave an MIC [23] of 0.097 µg/mL (≈ 0.135 µM), an MIC ([24]; broth-dilution microtiter, Pasteurella multocida 40G, read-out: MIC) of 0.195 µg/mL (≈ 0.271 µM) and an MIC [25] of 0.78 µg/mL (≈ 1.08 µM). For the same compound, the MIC ([26]; broth-dilution microtiter, Pasteurella hemolytica 41D, read-out: MIC) was 0.39 µg/mL (≈ 0.542 µM) and the MIC ([27]; broth-dilution microtiter, Staphylococcus aureus 19C, read-out: MIC) was 0.39 µg/mL (≈ 0.542 µM).

`CCC1OC(=O)CC(O)C(C)C(OC2OC(C)C(O)C(N(C)C)C2O)C(CC=O)CC(C)C(=O)C=CC(C)=CC1CNC12CC3CC(CC(C3)C1)C2` (stereo not drawn) [Compound 1, 23-deoxy-23-(1-adamantanylamino)-OMT] was tested, and the ED50 (Staphylococcus aureus) was 3.58 mg/kg, the “Number of Deaths/Number Treated” value (Pasteurella multocida) was 0/10 and the MIC ([1]; read-out: MIC) was 0.06 µg/mL (≈ 0.0821 µM). The MIC [2] was 0.5 µg/mL (≈ 0.684 µM), the MIC [3] was 0.5 µg/mL (≈ 0.684 µM) and the MIC [4] was 0.125 µg/mL (≈ 0.171 µM). It also gave an MIC ([5]; Haemophilus influenzae) of 2 µg/mL (≈ 2.74 µM), an MIC [6] of 0.5 µg/mL (≈ 0.684 µM) and an MIC [7] of 0.5 µg/mL (≈ 0.684 µM). For the same compound, the MIC [8] was 0.125 µg/mL (≈ 0.171 µM), the MIC [9] was 0.5 µg/mL (≈ 0.684 µM) and the MIC [10] was 0.5 µg/mL (≈ 0.684 µM). The MIC [11] was 0.5 µg/mL (≈ 0.684 µM), the MIC [12] was 0.5 µg/mL (≈ 0.684 µM) and the “ED50 Oral” value (Streptococcus pyogenes; oral) was 81.8 mg/kg × 2. For the same compound, the ED50 (Streptococcus pyogenes) was over 100 mg/kg, the ED50 [13] was 2.5 mg/kg and the MIC ([14]; Pasteurella multocida, 60A) was 0.78 µg/mL (≈ 1.07 µM). The MIC ([15]; Pasteurella, 23C) was 1.56 µg/mL (≈ 2.13 µM), the MIC [16] was 6.25 µg/mL (≈ 8.55 µM) and the MIC ([17]; Pasteurella multocida, 17E) was 0.78 µg/mL (≈ 1.07 µM). It also gave an MIC [18] of 6.25 µg/mL (≈ 8.55 µM), an MIC [19] of 6.25 µg/mL (≈ 8.55 µM) and an MIC (Mycoplasma hyorhinis 29E) of 0.39 µg/mL (≈ 0.534 µM). For the same compound, the MIC (Mycoplasma synoviae 40A; 40A) was under 0.048 µg/mL, the MIC (Streptococcus sp. 19F) was under 0.048 µg/mL and the MIC ([20]; Pasteurella multocida, 68C) was 0.78 µg/mL (≈ 1.07 µM). It also gave an MIC ([21]; Pasteurella multocida, 22A) of 0.78 µg/mL (≈ 1.07 µM), an MIC ([22]; broth-dilution microtiter, Mycoplasma hyopneumoniae S5972, read-out: MIC) of under 0.024 µg/mL and an MIC [23] of 0.097 µg/mL (≈ 0.133 µM). For the same compound, the MIC ([24]; Pasteurella multocida, 40G) was 0.78 µg/mL (≈ 1.07 µM), the MIC [25] was 3.12 µg/mL (≈ 4.27 µM) and the MIC ([26]; Pasteurella, 41D) was 1.56 µg/mL (≈ 2.13 µM). It also gave an MIC ([27]; Staphylococcus aureus, 19C) of 0.78 µg/mL (≈ 1.07 µM).
